US20260159512A1, “BCAT2 INHIBITORS” (AGIOS PHARMACEUTICALS, INC., priority 2021, published 2026)

Tests used:
Settings in all cases: average where tested multiple times
BCAT2 [1] = target: T1, BCAT2 (Homo sapiens, UniProt O15382); assay: BCAT2 in vitro enzyme inhibition assay (resazurin/diaphorase-coupled fluorescence); format: biochemical
T1 sequence (O15382 28-392): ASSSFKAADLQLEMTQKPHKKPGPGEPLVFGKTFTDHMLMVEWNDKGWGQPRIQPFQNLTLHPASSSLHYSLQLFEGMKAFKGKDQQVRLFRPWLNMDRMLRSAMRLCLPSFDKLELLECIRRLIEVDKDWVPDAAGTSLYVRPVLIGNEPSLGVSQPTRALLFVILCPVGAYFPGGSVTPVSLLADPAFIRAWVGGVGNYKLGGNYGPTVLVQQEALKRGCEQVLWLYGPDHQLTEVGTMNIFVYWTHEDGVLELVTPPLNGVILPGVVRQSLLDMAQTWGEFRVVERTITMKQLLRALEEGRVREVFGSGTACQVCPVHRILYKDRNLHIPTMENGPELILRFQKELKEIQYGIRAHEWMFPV
How it was run: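 Coupled fluorescence readout: glutamate formed from L-leucine/α-ketoglutarate transamination drives GDH/NAD/diaphorase reduction of resazurin (Ex 540/Em 590). Human BCAT2 was first exposed 1 h at room temperature to compound, top final 100 μM in 3-fold, 10-point series; substrate reaction ran 1 h before SDS quench, in technical duplicate with DMSO max and enzyme-free min controls.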

BCAT2 [2] = target: T1, BCAT2; assay: BCAT2 in vitro cell inhibition using engineered A549 cells (KMV cell assay, 13C6-KMV by LC-MS/MS); format: cell-based; set-up: The result was an engineered A549 cell line that expressed endogenous BCAT2; endogenous in cells; host or cells: A549 cells with MUT and BCAT1 knocked out by CRISPR/CAS9; key to BCAT2 Cell Inhibition: A: less than or equal to 0.100 μM; B: greater than 0.100 and less than or equal to 0.500 μM; C: greater than 0.500 and less than or equal to 1.000 μM; d: greater than 1.000 μM; E: no fit
hBCAT1 = target: T2, hBCAT1 (Homo sapiens, UniProt P54687); assay: BCAT1 in vitro enzyme inhibition assay (resazurin/diaphorase-coupled fluorescence); format: biochemical
T2 sequence (P54687 1-386): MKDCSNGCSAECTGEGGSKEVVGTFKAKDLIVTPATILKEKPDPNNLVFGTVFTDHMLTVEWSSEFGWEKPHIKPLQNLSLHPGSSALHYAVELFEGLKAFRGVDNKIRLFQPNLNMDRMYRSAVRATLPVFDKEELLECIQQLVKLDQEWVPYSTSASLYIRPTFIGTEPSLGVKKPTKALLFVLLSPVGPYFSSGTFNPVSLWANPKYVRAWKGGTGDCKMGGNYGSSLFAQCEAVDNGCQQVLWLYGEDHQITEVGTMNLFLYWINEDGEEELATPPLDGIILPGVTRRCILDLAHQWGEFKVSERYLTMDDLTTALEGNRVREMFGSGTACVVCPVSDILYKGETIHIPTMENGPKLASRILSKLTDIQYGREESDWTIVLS
How it was run: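 Ten-point, 3-fold compound series (top final 100 μM, delivered 1:50 from 50× DMSO stocks) tested against hBCAT1. Inhibition detected via diaphorase-coupled resazurin fluorescence, duplicate wells, with values from repeated runs averaged.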

Q: `O=C(N[C@H]1CCC[C@@H](n2c(COC(F)(F)F)nc3cnc(-n4nccn4)cc32)C1)c1ncc(Cl)s1` [Example 315, N-((1S,3R)-3-(6-(2H-1,2,3-triazol-2-yl)-2-((trifluoromethoxy)methyl)-1H-imidazo[4,5-c]pyridin-1-yl)cyclohexyl)-5-chlorothiazole-2-carboxamide] was tested. Which IC50 (BCAT2 [1]) did it give?
A: ≤ 100 nM

Q: And the IC50 (BCAT2 [2])?
A: 100 to 500 nM

Q: And the IC50 (hBCAT1)?
A: 500 to 1000 nM

Q: For `N#Cc1cnc(C(=O)N[C@H]2CCC[C@@H](n3c(-c4ncccc4F)nc4cnc(-n5nccn5)cc43)C2)s1` [Example 66, 5-cyano-N-((1S,3R)-3-(2-(3-fluoropyridin-2-yl)-6-(2H-1,2,3-triazol-2-yl)-1H-imidazo[4,5-c]pyridin-1-yl)cyclohexyl)thiazole-2-carboxamide], which IC50 (BCAT2 [1]) is on record?
A: ≤ 100 nM

Q: And the IC50 (BCAT2 [2])?
A: ≤ 100 nM

Q: What about the IC50 (hBCAT1) of the same compound?
A: < 500 nM

Q: Which IC50 (BCAT2 [1]) does the source give for `O=C(N[C@H]1CCC[C@@H](n2c(-c3ccccc3F)nc3cnc(-c4nc[nH]n4)cc32)C1)c1ncc(C(F)F)s1` [Example 68, 5-(difluoromethyl)-N-[(1S,3R)-3-[2-(2-fluorophenyl)-6-(1H-1,2,4-triazol-3-yl)imidazo[4,5-c]pyridin-1-yl]cyclohexyl]thiazole-2-carboxamide] here?
A: ≤ 100 nM

Q: And the IC50 (BCAT2 [2])?
A: ≤ 100 nM

Q: What about the IC50 (hBCAT1) of the same compound?
A: < 500 nM

Q: For `CC(C)Cc1nc2cnc(-c3nc[nH]n3)cc2n1[C@@H]1CCC[C@H](NC(=O)c2ncc(C#N)s2)C1` [Example 349, 5-cyano-N-((1S,3R)-3-(2-isobutyl-6-(1H-1,2,4-triazol-3-yl)-1H-imidazo[4,5-c]pyridin-1-yl)cyclohexyl)thiazole-2-carboxamide], which IC50 (BCAT2 [1]) is on record?
A: ≤ 100 nM

Q: And the IC50 (BCAT2 [2])?
A: 100 to 500 nM

Q: And the IC50 (hBCAT1)?
A: < 500 nM

Q: What does the source list for `O=C(N[C@H]1CCC[C@@H](n2c(-c3ccccn3)nc3cnc(-n4nccn4)cc32)C1)c1ccc(Br)s1` [Example 11, 5-bromo-N-((1S,3R)-3-(2-(pyridin-2-yl)-6-(2H-1,2,3-triazol-2-yl)-1H-imidazo[4,5-c]pyridin-1-yl)cyclohexyl)thiophene-2-carboxamide]?
A: IC50 (BCAT2 [1]): ≤ 100 nM; IC50 (BCAT2 [2]): ≤ 100 nM; IC50 (hBCAT1): < 500 nM

Q: For `C#Cc1cnc(C(=O)N[C@H]2CCC[C@@H](n3c(-c4ncccc4F)nc4cnc(-n5cncn5)cc43)C2)s1` [Example 29, 5-ethynyl-N-((1S,3R)-3-(2-(3-fluoropyridin-2-yl)-6-(1H-1,2,4-triazol-1-yl)-1H-imidazo[4,5-c]pyridin-1-yl)cyclohexyl)thiazole-2-carboxamide], which IC50 (BCAT2 [1]) is on record?
A: ≤ 100 nM

Q: And the IC50 (BCAT2 [2])?
A: 100 to 500 nM

Q: And the IC50 (hBCAT1)?
A: 500 to 1000 nM

Q: Which IC50 (BCAT2 [1]) does the source give for `CO[C@@H]1C[C@@H](NC(=O)c2ccc(Cl)s2)C[C@@H](n2c(-c3ccccc3F)nc3cnc(-c4nc[nH]n4)cc32)C1` (stereo in doubt) [Example 412, 5-chloro-N-((1S,3R,5R)-3-(2-(2-fluorophenyl)-6-(1H-1,2,4-triazol-3-yl)-1H-imidazo[4,5-c]pyridin-1-yl)-5-methoxycyclohexyl)thiophene-2-carboxamide] here?
A: ≤ 100 nM

Q: And the IC50 (BCAT2 [2])?
A: ≤ 100 nM

Q: What about the IC50 (hBCAT1) of the same compound?
A: < 500 nM

Q: With `CC(C)(C)Cc1nc2cnc(-c3nc[nH]n3)cc2n1[C@@H]1CCC[C@H](NC(=O)c2ncc(Cl)s2)C1` [Example 162, 5-chloro-N-((1S,3R)-3-(2-neopentyl-6-(1H-1,2,4-triazol-3-yl)-1H-imidazo[4,5-c]pyridin-1-yl)cyclohexyl)thiazole-2-carboxamide] as the compound, how does the IC50 (BCAT2 [1]) read?
A: ≤ 100 nM

Q: What about the IC50 (BCAT2 [2]) of the same compound?
A: ≤ 100 nM

Q: And the IC50 (hBCAT1)?
A: < 500 nM

Q: Which IC50 (BCAT2 [1]) does the source give for `O=C(N[C@H]1CCC[C@@H](n2c(-c3ccccc3F)nc3cnc(-c4n[nH]c(=O)o4)cc32)C1)c1ncc(Cl)s1` [Example 203, 5-chloro-N-((1S,3R)-3-(2-(2-fluorophenyl)-6-(5-oxo-4,5-dihydro-1,3,4-oxadiazol-2-yl)-1H-imidazo[4,5-c]pyridin-1-yl)cyclohexyl)thiazole-2-carboxamide] here?
A: ≤ 100 nM

Q: And the IC50 (BCAT2 [2])?
A: 100 to 500 nM

Q: What about the IC50 (hBCAT1) of the same compound?
A: < 500 nM

Q: For `O=C(N[C@H]1CCC[C@@H](n2c(-c3ccccn3)nc3cnc(-n4cncn4)cc32)C1)c1ncc(C(F)F)s1` [Example 26, 5-(difluoromethyl)-N-((1S,3R)-3-(2-(pyridin-2-yl)-6-(1H-1,2,4-triazol-1-yl)-1H-imidazo[4,5-c]pyridin-1-yl)cyclohexyl)thiazole-2-carboxamide], which IC50 (BCAT2 [1]) is on record?
A: 100 to 500 nM

Q: And the “BCAT2 Cell Inhibition” value (BCAT2 [2])?
A: E

Q: What about the IC50 (hBCAT1) of the same compound?
A: > 5000 nM

Q: What does the source list for `O=C(NC1CCCC(n2c(-c3ncccc3F)nc3cnc(-c4nnco4)cc32)C1)c1ccc(Br)s1` (stereo not drawn) [Example 2, 5-bromo-N-(3-(2-(3-fluoropyridin-2-yl)-6-(1,3,4-oxadiazol-2-yl)-1H-imidazo[4,5-c]pyridin-1-yl)cyclohexyl)thiophene-2-carboxamide]?
A: IC50 (BCAT2 [1]): ≤ 100 nM; IC50 (BCAT2 [2]): 100 to 500 nM; IC50 (hBCAT1): 500 to 1000 nM

Q: Which results are given for `C#Cc1cnc(C(=O)N[C@H]2CCC[C@@H](n3c(-c4ncccc4F)nc4cnc(-n5nccn5)cc43)C2)s1` [Example 23, 5-ethynyl-N-((1S,3R)-3-(2-(3-fluoropyridin-2-yl)-6-(2H-1,2,3-triazol-2-yl)-1H-imidazo[4,5-c]pyridin-1-yl)cyclohexyl)thiazole-2-carboxamide]?
A: IC50 (BCAT2 [1]): ≤ 100 nM; IC50 (BCAT2 [2]): ≤ 100 nM; IC50 (hBCAT1): < 500 nM

Q: With `O=C(N[C@H]1CCC[C@@H](n2c(-c3ccccc3F)nc3cnc(-c4ccn[nH]4)cc32)C1)c1ncc(C(F)F)s1` [Example 77, 5-(difluoromethyl)-N-((1S,3R)-3-(2-(2-fluorophenyl)-6-(1H-pyrazol-5-yl)-1H-imidazo[4,5-c]pyridin-1-yl)cyclohexyl)thiazole-2-carboxamide] as the compound, how does the IC50 (BCAT2 [1]) read?
A: ≤ 100 nM

Q: And the IC50 (BCAT2 [2])?
A: ≤ 100 nM

Q: What about the IC50 (hBCAT1) of the same compound?
A: < 500 nM

Q: With `CN1CC(NC(=O)c2ccc(Br)s2)CC(n2c(-c3ccccc3F)nc3cnc(-c4ncco4)cc32)C1` (stereo not drawn) [Example 117, 5-bromo-N-(5-(2-(2-fluorophenyl)-6-(oxazol-2-yl)-1H-imidazo[4,5-c]pyridin-1-yl)-1-methylpiperidin-3-yl)thiophene-2-carboxamide] as the compound, how does the IC50 (BCAT2 [1]) read?
A: ≤ 100 nM

Q: What about the IC50 (BCAT2 [2]) of the same compound?
A: ≤ 100 nM

Q: What about the IC50 (hBCAT1) of the same compound?
A: 500 to 1000 nM

Q: `O=C(N[C@H]1C[C@H](O)C[C@@H](n2c(-c3ccccc3F)nc3cnc(-c4ccn[nH]4)cc32)C1)c1ncc(Cl)s1` (single isomer, unassigned) [Example 258] was tested. Which IC50 (BCAT2 [1]) did it give?
A: ≤ 100 nM

Q: What about the IC50 (BCAT2 [2]) of the same compound?
A: ≤ 100 nM

Q: And the IC50 (hBCAT1)?
A: < 500 nM

Q: How did the IC50 (BCAT2 [1]) turn out when `Cc1csc(-c2cc3c(cn2)nc(CC(C)C)n3[C@@H]2CCC[C@H](NC(=O)c3ncc(Cl)s3)C2)n1` [Example 326, 5-chloro-N-((1S,3R)-3-(2-isobutyl-6-(4-methylthiazol-2-yl)-1H-imidazo[4,5-c]pyridin-1-yl)cyclohexyl)thiazole-2-carboxamide] was run?
A: ≤ 100 nM

Q: And the IC50 (BCAT2 [2])?
A: ≤ 100 nM

Q: And the IC50 (hBCAT1)?
A: < 500 nM

Q: How did the IC50 (BCAT2 [1]) turn out when `CC(C)Cc1nc2cnc(-n3ccc(N)n3)cc2n1[C@@H]1CCC[C@H](NC(=O)c2ncc(Cl)s2)C1` [Example 334, N-((1S,3R)-3-(6-(3-amino-1H-pyrazol-1-yl)-2-isobutyl-1H-imidazo[4,5-c]pyridin-1-yl)cyclohexyl)-5-chlorothiazole-2-carboxamide] was run?
A: ≤ 100 nM

Q: What about the IC50 (BCAT2 [2]) of the same compound?
A: 500 to 1000 nM

Q: What about the IC50 (hBCAT1) of the same compound?
A: < 500 nM

Q: For `O=C(N[C@H]1CCC[C@@H](n2c(Nc3ccccc3)nc3cnc(-n4nccn4)cc32)C1)c1ncc(C(F)F)s1` [Example 73, 5-(difluoromethyl)-N-((1S,3R)-3-(2-(phenylamino)-6-(2H-1,2,3-triazol-2-yl)-1H-imidazo[4,5-c]pyridin-1-yl)cyclohexyl)thiazole-2-carboxamide], which IC50 (BCAT2 [1]) is on record?
A: ≤ 100 nM

Q: And the IC50 (BCAT2 [2])?
A: > 1000 nM

Q: And the IC50 (hBCAT1)?
A: > 5000 nM
